Reference: US4241056A, “Penicillins and salts thereof” (Boehringer Ingelheim GmbH, priority 1978, dated 1980)
≈ marks a conversion by molar mass, not a printed value. Read-outs that look alike come from different tables or passages of the source.

Key:
[1] = tested on: Staphylococcus aureus SG 511; test: MIC, serial dilution test in the microtiter system; assay type: cell-based; conditions: SG511, 18 h, Staph. Aureus SG 511, 37° C., 18-20 hours
Procedure: (§1) The tests were performed according to the method of the serial dilution test in the microtiter system. The effect of the substances on bacteriostasis was examined in a fluid medium. The activity on bacteriostatis was examined at the following concentrations:
(§2) 10 gm of peptone, 8 gm of meat extract-oxoid, 3 gm of sodium chloride, 2 gm of sec. sodium phosphate were diluted with distilled water to 1000 ml (pH 7.2-7.4). Only in the test against streptococci 1% of glucose was added. The age of the primary cultures was about 20 hours. The standardizations of the pathogen suspension was effected by using a photometer according to "Eppendorf" (test tube diameter 14 mm, filter 546 nm) with the aid of the turbidity of a comparison suspension consisting of barium sulfate, this suspension being prepared by addition of 3.0 ml of 1% barium chloride solution to 97 ml of 1% sulfuric acid. After the standardization, streptococcus aronson were further diluted to a concentration of 1:15 and the other germs to a concentration of 1:1500 by menas of a sodium chloride solution.
(§3) 16 mg of the test substance were put into a 10 ml measuring flask and filled up to the mark with the solvent. The further dilution series was standardized with distilled water or the respective solvent.
(§4) The cavities of the microtiter plates were filled with 0.2 ml of nutrient medium. Then, 0.01 ml of the corresponding test substance dilution was added and inoculated with 0.01 ml of the standardized suspension. The bacteria were incubated at 37° C. for 18-20 hours. Control tests merely using the solvent were carried out simultaneously.
(§5) The measurement was carried out macroscopically to determine the minimal inhibitory (threshold) concentration, i.e. the lowest still bacteriostatically effective concentration.
(§6) Staphylococcus aureus SG 511, streptococcus aronson, streptococcus faecalis ATCC 10541, escherichia coli ATCC 9637, 11 775 and escherichia coli 12593/74 (β-lactamase carrier), pseudomonas aeruginosa hamburgensis and ATCC 10145, serratia marcescens ATCC 13 880, klebsiella pneumoniae ATCC 10 031 and 272 and proteus mirabilis hamburgensis.

[2] = tested on: escherichia coli 12593/74 (β-lactamase carrier); test: MIC, serial dilution test in the microtiter system; assay type: cell-based; conditions: 18 h, E. coli 12593/74 (β-lactamase carrier), 37° C., 18-20 hours
Procedure: as §1, §2, §3, §4, §5, §6

[3] = tested on: escherichia coli ATCC 11775; test: MIC, serial dilution test in the microtiter system; assay type: cell-based; conditions: ATCC11775, 18 h, E. coli ATCC 11775, 37° C., 18-20 hours
Procedure: as §1, §2, §3, §4, §5, §6

[4] = tested on: escherichia coli ATCC 9637; test: MIC, serial dilution test in the microtiter system; assay type: cell-based; conditions: ATCC9637, 18 h, E. coli ATCC 9637, 37° C., 18-20 hours
Procedure: as §1, §2, §3, §4, §5, §6

[5] = tested on: klebsiella pneumoniae 272; test: MIC, serial dilution test in the microtiter system; assay type: cell-based; conditions: 18 h, klebs pneum. 272, 37° C., 18-20 hours
Procedure: as §1, §2, §3, §4, §5, §6

[6] = tested on: klebsiella pneumoniae ATCC 10 031; test: MIC, serial dilution test in the microtiter system; assay type: cell-based; conditions: 18 h, klebs pneum ATCC 10031, 37° C., 18-20 hours
Procedure: as §1, §2, §3, §4, §5, §6

[7] = tested on: proteus mirabilis hamburgensis; test: MIC, serial dilution test in the microtiter system; assay type: cell-based; conditions: 18 h, prot. mirabilis, 37° C., 18-20 hours
Procedure: as §1, §2, §3, §4, §5, §6

[8] = tested on: pseudomonas aeruginosa ATCC 10145; test: MIC, serial dilution test in the microtiter system; assay type: cell-based; conditions: ATCC10145, 18 h, pseud. aerug. ATCC 10145, 37° C., 18-20 hours
Procedure: as §1, §2, §3, §4, §5, §6

[9] = tested on: pseudomonas aeruginosa hamburgensis; test: MIC, serial dilution test in the microtiter system; assay type: cell-based; conditions: 18 h, pseud. aerug. hamb., 37° C., 18-20 hours
Procedure: as §1, §2, §3, §4, §5, §6

[10] = tested on: serratia marcescens ATCC 13 880; test: MIC, serial dilution test in the microtiter system; assay type: cell-based; conditions: ATCC13, 18 h, serrat marcesc., 37° C., 18-20 hours
Procedure: as §1, §2, §3, §4, §5, §6

streptococcus aronson = test: MIC, serial dilution test in the microtiter system; assay type: cell-based; conditions: 18 h, strept. aronson, 1% glucose added, 37° C., 18-20 hours
Procedure: as §1, §2, §3, §4, §5, §6

[11] = tested on: streptococcus faecalis ATCC 10541; test: MIC, serial dilution test in the microtiter system; assay type: cell-based; conditions: Enterococcus faecalis, ATCC10541, 18 h; strept. faecal.; 37° C., 18-20 hours
Procedure: as §1, §2, §3, §4, §5, §6

[12] = Serum (blood) level in rats; assay type: in vivo; conditions: rat, average from 3 rats; for concentration at 1 h: 60 min.; for concentration at 2 h: 120 min.; for concentration at 0.5 h: 30 min.
Procedure: For the determination of the serum level in rats, typical representatives of the penicillins according to the invention were administered at a dosage of 10 mg/kg subcutaneously or 100 mg/kg per os to groups of 3 female FW 49 rats (weight 100 to 130 gm) each. Blood tests taken from the heart were worked up, and the obtained sera were tested by the cylinder test-agar diffusion method on plates with sarcina lutea ATCC 15957. The samples were compared with standard curves.

E. coli ATCC 11775 [13] = test: In vivo activity against experimental infection in mice; design: species or system mouse (NMRI); conditions: Escherichia coli, 168 h, 7 days observation, read-out: ED50 (dose at which 50% of the animals survived)
Procedure: (§7) A number of compounds of this invention were tested in vivo in mice against experimental infections. Bacteria E. coli ATCC 11775 and pseudomonas aeruginosa walter were used as pathogens. An intraperitoneal infection with 0.2 ml of a 5% mucin suspension of the bacteria was induced. This corresponds to about 2×10^6 germs E. coli and 8×10^5 germs pseudomonas/mouse. Female NMRI mice were divided into groups of 10 animals each, two control groups remained untreated, the remaining groups were treated with different doses of the respective penicillins for the determination of the ED50 (dose at which 50% of the animals survived). The groups with the E. coli infection were treated with the substance 3 times on the first day (1, 4 and 7 hours post-infectionem) and for 2 days thereafter twice a day. The groups with the pseudomonas infection were treated with the substance applied 6 times on the first day (1, 3, 6, 9, 12, and 15 hours post-infectionem) and for 2 days thereafter twice a day. The observation time was in both cases 7 days.

E. coli ATCC 11775 [14] = test: Influence of the size of the inoculum on the MIC-values; assay type: cell-based; conditions: Escherichia coli
Procedure: (§8) For the penicillins C and H, which are typical representatives for this invention, the influence of the size of the inoculum on the MIC-values against ps. aerug. hamburg. and E. coli ATCC 11775 in the microtiter system was determined. Thereby 3 different sizes of inoculum (3.3×10^6, 3.3×10^4 and 3.3×10^2 in E. coli and 4.7×10^6, 4.7×10^4 and 4.7×10^2 in pseudomonas) were used. The reference system was again penicillin Q.

pseud. aerug. hamburg. = test: as above; assay type: cell-based; conditions: Pseudomonas aeruginosa
Procedure: as §8

[15] = tested on: pseudomonas aeruginosa walter; test: In vivo activity against experimental infection in mice; design: species or system mouse (NMRI); conditions: sc, 168 h, subcutaneous, 7 days observation, read-out: ED50 (dose at which 50% of the animals survived)
Procedure: as §7

Pseudomonas = conditions: in vivo as well as in vitro; cited from earlier work
[16] = ATCC11775, inoculum 3.3 × 10^2 germs/ml
[17] = ATCC11775, inoculum 3.3 × 10^4 germs/ml
[18] = ATCC11775, inoculum 3.3 × 10^6 germs/ml

Structure (SMILES) | MIC [1] [mg/L] | MIC [2] [mg/L] | MIC [3] [mg/L] | MIC [4] [mg/L] | MIC [5] [mg/L] | MIC [6] [mg/L] | MIC [7] [mg/L] | MIC [8] [mg/L] | MIC [9] [mg/L] | MIC [10] [mg/L] | MIC (streptococcus aronson) [mg/L] | MIC [11] [mg/L] | concentration at 1 h ([12]; oral 100 mg/kg) [µg/mL] | concentration at 2 h ([12]; oral 100 mg/kg) [µg/mL] | concentration at 1 h ([12]; sc, subcutaneous 10 mg/kg) [µg/mL] | concentration at 2 h ([12]; sc, subcutaneous 10 mg/kg) [µg/mL] | ED50 (E. coli ATCC 11775 [13]; ATCC11775, sc, subcutaneous) [mg/kg] | MIC (E. coli ATCC 11775 [14]; [16]) [mg/L] | MIC (E. coli ATCC 11775 [14]; [17]) [mg/L] | MIC (E. coli ATCC 11775 [14]; [18]) [mg/L] | further results
CC1(C)S[C@@H]2[C@H](NC(=O)[C@H](NC(=O)Nc3cnc(Nc4ccccc4)nc3O)c3ccc(O)cc3)C(=O)N2[C@H]1C(=O)O [G, D-α-[3-(2-anilino-4-hydroxy-5-pyrimidyl)-ureido]-p-hydroxy-benzyl-penicillin sodium] | 0.3 | > 80 | 1.25 | 0.6 | 5 | 10 | 2.5 | 2.5 | 5 | 0.3 | 0.08 | 5 | 0.6 | 0.1 | 5.6 | 1.5 | 8 |  |  |  | 
CC1(C)S[C@@H]2[C@H](NC(=O)[C@H](NC(=O)Nc3cnc(Nc4ccc(Cl)cc4)nc3O)c3ccc(O)cc3)C(=O)N2[C@H]1C(=O)O [H, D-α-[3-(2-p-chloroanilino-4-hydroxy-5-pyrimidyl)-ureido]-p-hydroxybenzyl-penicillin sodium] | 1.25 | 80 | 0.6 | 1.25 | 2.5 | 5 | 0.6 | 1.25 | 2.5 | 1.25 | 0.08 | 5 |  |  |  |  |  | 0.3 | 0.6 | 1 | MIC (pseud. aerug. hamburg.; inoculum 4.7 × 10^2 germs/ml): 2.5 mg/L; MIC (pseud. aerug. hamburg.; inoculum 4.7 × 10^4 germs/ml): 2.5 mg/L; MIC (pseud. aerug. hamburg.; inoculum 4.7 × 10^6 germs/ml): > 80 mg/L
CC1(C)S[C@@H]2[C@H](NC(=O)[C@H](NC(=O)N3CCNC3=O)c3ccccc3)C(=O)N2[C@H]1C(=O)O [Q, reference compound] |  |  | 10 (≈ 21.7 µM) | 20 (≈ 43.3 µM) |  |  |  | 5 (≈ 10.8 µM) | 10 (≈ 21.7 µM) |  |  |  | 0.6 | 0.3 | 3.7 | 0.4 | 35 | 10 (≈ 21.7 µM) | 10 (≈ 21.7 µM) | 10 (≈ 21.7 µM) | MIC (pseud. aerug. hamburg.; inoculum 4.7 × 10^2 germs/ml): 5 mg/L (≈ 10.8 µM); MIC (pseud. aerug. hamburg.; inoculum 4.7 × 10^4 germs/ml): 10 mg/L (≈ 21.7 µM); MIC (pseud. aerug. hamburg.; inoculum 4.7 × 10^6 germs/ml): > 80 mg/L; concentration at 0.5 h ([12]; oral 100 mg/kg): 0.8 µg/mL; concentration at 0.5 h ([12]; sc, subcutaneous 10 mg/kg): 2.8 µg/mL; ED50 (E. coli ATCC 11775 [13]; ATCC11775, po, peroral): 320 mg/kg; ED50 [15]: 110 mg/kg
CC1(C)S[C@@H]2[C@H](NC(=O)C(c3ccccc3)S(=O)(=O)O)C(=O)N2[C@H]1C(=O)O (stereo partly shown) [Sulbenicillin] |  |  |  |  |  |  |  |  |  |  |  |  |  |  |  |  |  |  |  |  | antipseudomonal activity (Pseudomonas): only a poor activity
